Data published in PMC4902181 (Journal of medicinal chemistry, 2015).
Entries after “also recorded” stand apart in the source; their conditions may differ. Each block holds one compound with its values, some of them ahead of it.

How the values were obtained:
[1] = system: lipofuscin bisretinoids; details: chronic oral administration, Abca4−/− mouse; cited from earlier work
[2] = Human liver microsomal stability; type: in vitro ADME; details: compound 10 µM, 30 min incubation
[3] = 30 min incubation; cited from earlier work
[4] = system: serum RBP4; details: chronic oral administration, Abca4−/− mouse; cited from earlier work
[5] = Rat liver microsomal stability; type: in vitro ADME; details: compound 10 µM, 30 min incubation
[6] = system: panel of fifty-five GPCRs, enzymes, ion channels, and transporters; assay: Standard off-target screening panel; details: data not shown
[7] = Single dose IV and PO PK in rats; type: in vivo; details: Sprague-Dawley, rat, plasma, 2 mg/kg
[8] = molecular target: hERG channel (Homo sapiens, UniProt Q12809); assay: Patch-Xpress patch-clamp hERG assay; type: cell-based
hERG channel, sequence (Q12809 whole entry): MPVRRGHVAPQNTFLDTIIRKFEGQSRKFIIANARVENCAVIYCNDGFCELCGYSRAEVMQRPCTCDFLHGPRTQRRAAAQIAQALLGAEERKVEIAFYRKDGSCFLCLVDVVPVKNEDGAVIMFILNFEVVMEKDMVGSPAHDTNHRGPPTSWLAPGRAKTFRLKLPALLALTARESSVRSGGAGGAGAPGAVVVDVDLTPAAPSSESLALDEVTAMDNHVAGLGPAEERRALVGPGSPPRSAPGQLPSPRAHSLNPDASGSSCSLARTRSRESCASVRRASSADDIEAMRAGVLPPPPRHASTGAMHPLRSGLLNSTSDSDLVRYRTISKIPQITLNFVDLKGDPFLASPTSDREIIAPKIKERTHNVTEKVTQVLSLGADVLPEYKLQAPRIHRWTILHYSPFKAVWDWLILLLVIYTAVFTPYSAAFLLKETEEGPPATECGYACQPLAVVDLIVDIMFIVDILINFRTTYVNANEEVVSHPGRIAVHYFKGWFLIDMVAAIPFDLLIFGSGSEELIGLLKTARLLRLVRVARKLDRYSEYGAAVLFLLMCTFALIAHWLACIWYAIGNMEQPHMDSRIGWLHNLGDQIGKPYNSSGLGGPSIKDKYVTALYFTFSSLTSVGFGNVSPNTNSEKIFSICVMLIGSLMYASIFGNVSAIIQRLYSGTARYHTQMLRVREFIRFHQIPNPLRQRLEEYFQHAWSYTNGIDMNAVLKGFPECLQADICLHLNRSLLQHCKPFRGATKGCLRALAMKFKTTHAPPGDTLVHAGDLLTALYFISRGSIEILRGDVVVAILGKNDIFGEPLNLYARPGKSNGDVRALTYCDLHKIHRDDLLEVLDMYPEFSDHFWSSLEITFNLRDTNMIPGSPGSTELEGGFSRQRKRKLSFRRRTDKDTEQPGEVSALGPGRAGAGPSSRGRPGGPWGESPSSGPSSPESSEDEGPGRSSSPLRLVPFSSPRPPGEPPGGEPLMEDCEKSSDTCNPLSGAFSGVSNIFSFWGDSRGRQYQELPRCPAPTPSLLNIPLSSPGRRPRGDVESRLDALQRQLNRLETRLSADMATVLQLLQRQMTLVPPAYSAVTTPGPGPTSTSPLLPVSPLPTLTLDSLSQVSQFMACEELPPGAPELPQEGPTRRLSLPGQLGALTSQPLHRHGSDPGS

[9] = molecular target: T1, human PXR (Homo sapiens, UniProt O75469); assay: Human PXR activation; details: data not shown
T1 sequence (O75469 1-434): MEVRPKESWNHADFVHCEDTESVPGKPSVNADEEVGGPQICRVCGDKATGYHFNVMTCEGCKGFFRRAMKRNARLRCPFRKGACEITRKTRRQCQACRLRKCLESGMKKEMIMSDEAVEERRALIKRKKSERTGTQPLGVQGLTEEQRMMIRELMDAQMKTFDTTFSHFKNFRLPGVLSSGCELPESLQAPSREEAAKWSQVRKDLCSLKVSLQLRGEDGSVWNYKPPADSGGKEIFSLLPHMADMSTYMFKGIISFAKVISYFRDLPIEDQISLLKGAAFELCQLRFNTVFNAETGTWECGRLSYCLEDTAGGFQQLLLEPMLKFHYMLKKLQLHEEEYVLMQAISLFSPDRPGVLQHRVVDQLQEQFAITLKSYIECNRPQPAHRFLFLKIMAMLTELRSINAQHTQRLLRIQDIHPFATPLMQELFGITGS

[10] = system: MDCK-MDR1; assay: MDR1-MDCK permeability assay; type: in vitro ADME
[11] = molecular target: RBP4 (Homo sapiens, UniProt P02753); assay: RBP4 scintillation proximity assay; type: binding
[12] = molecular target: RBP4-TTR interaction (Homo sapiens, UniProt P02753); assay: HTRF retinol-dependent RBP4-TTR interaction assay; type: biochemical; details: read-out: RBP4 HTRF IC50; 1 µM retinol
[13] = molecular target: CYP2C9 (Homo sapiens, UniProt P11712); details: read-out: CYP2C9 inhibitory activity IC50; cited from earlier work
CYP2C9, sequence (P11712 whole entry): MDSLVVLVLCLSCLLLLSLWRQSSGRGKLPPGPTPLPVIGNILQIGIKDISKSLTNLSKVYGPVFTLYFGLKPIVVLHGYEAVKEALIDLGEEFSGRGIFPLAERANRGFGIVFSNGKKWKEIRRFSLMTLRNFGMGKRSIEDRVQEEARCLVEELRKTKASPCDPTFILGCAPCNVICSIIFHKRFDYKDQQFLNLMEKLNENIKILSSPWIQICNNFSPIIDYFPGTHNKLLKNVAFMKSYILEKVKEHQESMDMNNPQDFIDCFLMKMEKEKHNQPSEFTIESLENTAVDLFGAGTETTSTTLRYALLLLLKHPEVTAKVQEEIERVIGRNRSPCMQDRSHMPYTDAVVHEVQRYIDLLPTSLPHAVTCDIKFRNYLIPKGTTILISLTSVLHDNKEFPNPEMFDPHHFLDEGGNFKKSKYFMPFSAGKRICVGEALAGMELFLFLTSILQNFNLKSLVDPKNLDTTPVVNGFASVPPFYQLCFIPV

[14] = system: serum RBP4; details: acute and chronic rodent oral dosing; cited from earlier work

microsomal stability (% remaining) HLM [2]: 3 % remaining
microsomal stability (% remaining) RLM [5]: 85 % remaining
SMILES: O=C(O)c1ccccc1NC(=O)N1CCC(c2ccccc2C(F)(F)F)CC1 [Compound 3, A1120, reference compound]
reduction of accumulation of lipofuscin bisretinoids [1]: approximately 50%
HLM stability (% remaining) [3]: ~ 3 % remaining
reduction in serum RBP4 [4]: 75%

microsomal stability (% remaining) HLM [2]: 0.2 % remaining
microsomal stability (% remaining) RLM [5]: 9.8 % remaining
SMILES: COC(=O)c1cc(C)nc(N2C[C@H]3C[C@@H](c4ccccc4C(F)(F)F)C[C@H]3C2)n1 [Compound 28, Methyl 6-Methyl-2-((3aR,5r,6aS)-5-(2-(trifluoromethyl)phenyl)-hexahydrocyclopenta[c]pyrrol-2(1H)-yl)pyrimidine-4-carboxylate]

microsomal stability (% remaining) HLM [2]: 80 % remaining
microsomal stability (% remaining) RLM [5]: 76 % remaining
SMILES: Cc1cc(C(=O)O)nc(N2C[C@@H]3CN(c4ccccc4C(F)(F)F)C[C@@H]3C2)n1 [Compound 18, 6-Methyl-2-((3aR,6aS)-5-(2-(trifluoromethyl)phenyl)hexahydropyrrolo[3,4-c]pyrrol-2(1H)-yl)pyrimidine-4-carboxylic Acid]

microsomal stability (% remaining) HLM [2]: 0.0 % remaining
microsomal stability (% remaining) RLM [5]: 0.0 % remaining
SMILES: COC(=O)c1cc(C)nc(N2CCN(c3ccccc3C(F)(F)F)CC2)n1 [Compound 13, methyl 6-methyl-2-(4-(2-(trifluoromethyl)phenyl)piperazin-1-yl)-pyrimidine-4-carboxylate]

microsomal stability (% remaining) HLM [2]: 18 % remaining
microsomal stability (% remaining) RLM [5]: 63 % remaining
SMILES: Cc1cc(C(=O)O)nc(N2CCN(c3ccccc3C(F)(F)F)CC2)n1 [Compound 14, 6-Methyl-2-(4-(2-(trifluoromethyl)phenyl)piperazin-1-yl)-pyrimidine-4-carboxylic Acid]

microsomal stability (% remaining) HLM [2]: 68 % remaining
microsomal stability (% remaining) RLM [5]: 96 % remaining
SMILES: Cc1cc(C(=O)O)nc(N2CCC(c3ccccc3C(F)(F)F)CC2)n1 [Compound 10, 6-Methyl-2-(4-(2-(trifluoromethyl)phenyl)piperidin-1-yl)-pyrimidine-4-carboxylic Acid]

The next lines start with the compound.

SMILES: Cc1cc(C(=O)O)nc(N2C[C@H]3C[C@@H](c4ccccc4C(F)(F)F)C[C@H]3C2)n1 [Compound 33, 6-Methyl-2-((3aR,5r,6aS)-5-(2-(trifluoromethyl)phenyl)-hexahydrocyclopenta[c]pyrrol-2(1H)-yl)pyrimidine-4-carboxylic Acid]
off-target activity in screening panel [6]: no significant off-target activity
clearance [7]: 5.06 mL/h/kg
microsomal stability (% remaining) HLM [2]: 94 % remaining
off-target activity at the hERG channel [8]: no significant off-target activity
human PXR activation [9]: did not induce human PXR activation
microsomal stability (% remaining) RLM [5]: 93 % remaining
MDCK-MDR1 permeability class [10]: highly permeable; also recorded: high permeability

SMILES: Cc1cc(C(=O)O)nc(N2C[C@H]3C[C@H](c4ccccc4C(F)(F)F)C[C@H]3C2)n1 [Compound 40, 6-Methyl-2-((3aR,5s,6aS)-5-(2-(trifluoromethyl)phenyl)-hexahydrocyclopenta[c]pyrrol-2(1H)-yl)pyrimidine-4-carboxylic Acid]
RBP4 activity [11]: devoid of RBP4 activity

SMILES: O=C(O)c1ccccc1NC(=O)N1C[C@H]2C[C@@H](c3ccccc3C(F)(F)F)C[C@H]2C1 [Compound 4, 2-((3aR,5r,6aS)-5-(2-(trifluoromethyl)phenyl)octahydrocyclopenta[c]pyrrole-2-carboxamido)benzoic acid]
IC50 [12]: 294 nM
IC50 [13]: 340 nM
lowering of serum RBP4 levels [14]: > 85%
microsomal stability (% remaining) HLM [2]: 100 % remaining
HLM stability (% remaining) [3]: 100 % remaining
IC50 ([11]; read-out: RBP4 SPA IC50, fixed 10 nM 3H-retinol): 72.7 nM
microsomal stability (% remaining) RLM [5]: 75 % remaining

SMILES: O=C(O)c1cncc(N2C[C@H]3C[C@@H](c4ccccc4C(F)(F)F)C[C@H]3C2)c1 [Compound 51, 5-((3aR,5r,6aS)-5-(2-(Trifluoromethyl)phenyl)hexahydrocyclopenta[c]pyrrol-2(1H)-yl)nicotinic Acid]
RBP4 activity [11]: devoid of RBP4 activity
